Results on one substance are retold here after EP4063344A1, “SALT OF 2-ADAMANTYL ACETIC ACID HAVING ANTI-VIRAL ACTIVITY, FORMULATIONS THEREOF AND USES THEREOF” (Sciamannini, Umbro, priority 2021, dated 2022).

The test relates to viral and/or fungal and/or bacterial. To be noted: no test conditions given.

As for “1-hexadecanaminium, N,N,N,trimethyl-tricyclo[3.3.1.13,7]decane-2-acetate(1:1) [salt of the invention]”, the “viral and/or fungal and/or bacterial inhibition action” value is “greater than 4 log”.
